Results reported in US5354747A, “2-, 3-, 4-, 5-, 6-, 7-, 8-, 9- and/or 10-substituted dibenzoxazepine and dibenzthiazepine compounds, pharmaceutical compositions and methods of use” (G. D. Searle & Co., priority 1993, dated 1994).
Where a name gives a salt, the structure may show the parent alone.

Assays:
[1] = tested on: prostaglandin E2 -induced contractions of segments of guinea pig ileum; assay: Prostaglandin (PGE) Antagonism Assay; assay type: cell-based; settings: dose ratio of prostaglandin E2 EC50 doses with/without test compound, initial concentration 3 micromolar
Method: In order to determine the effectiveness of several of the compounds of the present invention ("test compounds") as prostaglandin E2 antagonists,a prostaglandin antagonism assay was conducted, as described below, to determine the ability of these compounds to inhibit prostaglandin E2 -induced contractions of segments of guinea pig ileum. […] Male albino guinea pigs weighing 200 to 500 grams were sacrificed by cervical dislocation. The ilea were then quickly removed from the guinea pigs and placed in a modified Tyrode solution, a solution which is known to those skilled in the art, containing one-half of the usual amount of magnesium ions. Segments of ileum about 2 cm long were then cut and mounted in a 10-mL tissue bath containing the modified Tyrode solution. The solution was maintained at 37° C. and aerated with a gaseous mixture of 95% oxygen and 5% carbon dioxide. Data for a control prostaglandin E2 dose response curve plotting concentration of prostaglandin E2 versus the intensity of contractions, detected isotonically, was then obtained by experimentally adjusting the dose of the prostaglandin E2 being injected into the tissue bath, in a manner known by those of skill in the art. Solutions or suspensions containing an initial concentration (3 micromolar) of a test compound in modified Tyrode solution ("test solutions/suspensions") were then separately substituted for the control bath solution. Each test solution/suspension was then kept in constant contact with the ileum tissue, except for brief periods to drain the bath in preparation for rinsing with fresh test solution/suspension. A second prostaglandin E2 dose response curve was then generated for prostaglandin E2 in the presence of a test compound. A dose ratio (DR) of EC50 doses was then calculated from the results of each test in a manner known by those of skill in the art. A control dose response curve (DRC) is produced in isolated segments of guinea pig ileum mounted in an automated apparatus with six concentrations of prostaglandin E2. A solution or suspension of test compound is substituted for the control bathing solution and is incubated for thirty minutes. An additional prostaglandin E2 dose response curve is produced in the presence of the test compound. A dose ratio is calculated from the EC50 values obtained from duplicate replications on each concentration of the test compound. […] The results of this prostaglandin antagonism assay are presented in Table 2 below in terms of their dose ratio. The compounds of the present invention which were tested in this assay, and for which results are presented in Table 2, correspond to the particular examples specified in Table 2.

[2] = tested on: Charles River male albino mice; assay: Writhing Assay (PBQ-induced writhing, analgesic activity); assay type: in vivo; settings: Intragastric, 30 mg per kilogram of body weight 25 min before PBQ i.p., writhes equal to or less than one-half the control median; for responders at 30 mg/kg: Mus musculus, po, 25 min, read-out: number of mice out of nine or ten in which a test compound produced analgesia (converted)
Source text: The Writhing Assay is one of the most widely-used experimental procedures for measuring the analgesic activity of different narcotic and nonnarcotic analgesic agents, and involves the continuous, chemically-induced pain of visceral origin to an animal, such as a mouse or rat. [Gyires et al., Arch. int. Pharmacodyn, 267, 131-140 (1984); […] al., Fed. Proc., 15, 494 (1956); Koster et al., Fed. Proc., 18, 412 (1959); and Witken et al., J. Pharmacol. exp. Ther., 133, 400-408 (1961).] Chemicals which may be used to induce this pain include phenylbenzoquinone (PBQ) and acetic acid. As a result of the chemical irritation to the animal, a characteristic stretching and writhing of the animal (dorsiflexion of the animal's back, extension of its hindlimbs and the strong contraction of its abdominal musculature) will generally occur. […] Drugs which reduce the number of writhes of the animal appear to restore the normal nociceptive threshold of the animal. Charles River male albino mice, weighing 20 to 30 grams were used in this assay. Twenty-five minutes after intragastric administration to nine or ten mice of 30 mg per kilogram of body weight of a compound of the present invention ("test compound"), […] of body weight of a 0.025% w/v solution of PBQ was injected intraperitoneally into each mouse. Ten mice which were given saline in place of a test compound of the invention were used as a control group. Five minutes later, each mouse was individually placed into a glass beaker for observation, and the number of writhes occurring during the following ten-minute period was counted. A test compound was considered to have produced analgesia in a mouse if, in accordance with the conditions set forth above, and under the test criteria employed for this assay, after the administration of 30 mg per kilogram of body weight of a compound of the present invention to the mouse, the number of writhes elicited by a mouse injected with PBQ was equal to, or less than, one-half the median number of writhes recorded for the saline-treated control group of mice that day, as described by Taber in "Predictive Value of Analgesic Assays in Mice and Rats," Advances in Biochemical Psychopharmacology, 8, 191 (1974). […] If this initial screening dose of the test compound produced analgesia in seven of nine or ten mice, then the effect of additional doses of the test compound on the writhing response was evaluated, and then the ED50 value (that dose of a compound which produced analgesia in 50% of the mice to which the compound was administered) was generally calculated. A maximum likelihood function was used to determine the ED50 value. (The slopes of the dose-response curves for all test compounds analyzed were compared as described by Tallarida and Murray, Manual of Pharmacologic Calculations, Page 11 (Springer Verlag, New York, 1981)). The results for the particular compounds of the present invention analyzed in this assay, and discussed in the examples identified below which correspond thereto, are presented in Table 1 hereinbelow. The compounds of the present invention which were tested in this assay, and for which results are presented in Table 1, correspond to the particular examples specified in Table 1. The fractions indicate the number of mice out of nine or ten in which a test compound produced analgesia, and the whole numbers are the calculated ED50 values.

Structure (SMILES)	Dose Ratio [1]	responders at 30 mg/kg [2] [%]	number of mice out of nine or ten in which a test compound produced analgesia [2]
O=C(CCc1cccnc1)N1CCN(C(=O)N2Cc3ccccc3Oc3ccc(Cl)cc32)CC1 [Example 33, 1-[(8-chlorodibenz[b,f][1,4]oxazepin-10(11H)-yl)carbonyl]-4-[(1-oxo-3-(3-pyridinyl)propyl]piperazine, monohydrochloride]	6.7	80	
Cl.O=C(N1CCN(CCc2ccccc2)CC1)N1Cc2ccccc2Oc2ccc(Cl)cc21 [Example 40, 8-Chloro-10,11-dihydro-10-[[4-(2-phenylethyl)-1-piperazinyl]carbonyl]dibenz[b,f][1,4]oxazepine, monohydrochloride]	4.1	20	
O=C(N1CCN(CCc2ccccc2)CC1)N1Cc2ccccc2Oc2ccccc21 [Example 41, 10,11-dihydro-10-[[4-(2-phenylethyl)-1-piperazinyl]carbonyl]dibenz[b,f][1,4]oxazepine, monohydrochloride]	2.6	100	
Cl.O=C(N1CCN(c2ccccc2)CC1)N1Cc2ccccc2Oc2ccc(Cl)cc21 [Example 43, 8-chloro-10,11-dihydro-10-[(4-phenyl-1-piperazinyl)carbonyl]dibenz[b,f][1,4]oxazepine, hydrochloride]	0.8	10	
Cl.O=C(N1CCN(Cc2ccsc2)CC1)N1Cc2ccccc2Oc2ccc(Cl)cc21 [Example 47, 8-chloro-10,11-dihydro-10-[[4-(3-thienylmethyl)-1-piperazinyl]carbonyl]dibenz[b,f][1,4]oxazepine, monohydrochloride]	2.9	70	
Cl.O=C(N1CCN(Cc2cccs2)CC1)N1Cc2ccccc2Oc2ccc(Cl)cc21 [Example 54, 8-chloro-10,11-dihydro-10-[[4-(2-thienylmethyl)-1-piperazinyl]carbonyl]dibenz[b,f][1,4]oxazepine, monohydrochloride]	2.4	60	
Cl.O=C(Cc1cccnc1)N1CCN(C(=O)N2Cc3ccccc3Oc3ccc(Cl)cc32)CC1 [Example 56, 1-[(8-chlorodibenz[b,f][1,4]oxazepin-10(11H)-yl)carbonyl]-4-(3-pyridinylacetyl)piperazine, monohydrochloride]	3.3	50	
Cl.O=C(c1cccnc1)N1CCN(C(=O)N2Cc3ccccc3Oc3ccc(Cl)cc32)CC1 [Example 58, 1-[(8-chlorodibenz[b,f][1,4]oxazepin-10(11H)-yl)carbonyl]-4-(3-pyridinylcarbonyl)piperazine, hydrochloride]	6.6	70	
Cl.O=C(N1CCCNCC1)N1Cc2ccccc2Oc2ccc(Cl)cc21 [Example 61, 8-chloro-10-[(hexahydro-1H-1,4-diazepin-1-yl)carbonyl]-10,11-dihydrodibenz[b,f][1,4]oxazepine, hydrochloride]	4.8	60	
Cl.O=C(N1CCN(Cc2ccco2)CC1)N1Cc2ccccc2Oc2ccc(Cl)cc21 [Example 65, 8-chloro-10-[[4-(2-furanylmethyl)-1-piperazinyl]carbonyl]-10,11-dihydrodibenz[b,f][1,4]oxazepine, monohydrochloride]	8.4	40	
CCN(CC)CCC1=CCN(C(=O)N2Cc3ccccc3Oc3ccc(Cl)cc32)CC1.Cl [Example 67, 8-chloro-10-[[4-[2-(diethylamino)ethyl]-3,6-dihydro-1(2H)-pyridinyl]carbonyl]-10,11-dihydrobenz[b,f][1,4]oxazepine, hydrochloride]	10.2		6/10
